These results are taken from patent publication US20090099169A1, “Benzofuran Compounds As EP1 Receptor Antagonists” (GLAXO GROUP LIMITED, priority 2006, published 2009).

Where a name gives a salt, the structure may show the parent alone. Some results are limits rather than exact numbers.

Experiment [1] concerns the target T1, human EP1 receptor (Homo sapiens, UniProt P34995).
T1 sequence (P34995 1-402): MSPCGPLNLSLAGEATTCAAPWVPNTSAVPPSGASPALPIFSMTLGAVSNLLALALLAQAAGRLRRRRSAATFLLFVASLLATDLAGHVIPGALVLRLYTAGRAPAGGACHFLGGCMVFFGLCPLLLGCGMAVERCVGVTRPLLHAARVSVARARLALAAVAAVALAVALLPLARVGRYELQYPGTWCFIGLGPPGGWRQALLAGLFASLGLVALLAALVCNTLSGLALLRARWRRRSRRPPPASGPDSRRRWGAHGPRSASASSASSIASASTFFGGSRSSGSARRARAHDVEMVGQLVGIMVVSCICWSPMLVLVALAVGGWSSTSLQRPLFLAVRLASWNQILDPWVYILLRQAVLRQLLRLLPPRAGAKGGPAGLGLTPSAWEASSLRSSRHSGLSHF
The experiment is described as follows: Binding assay for the human prostanoid EP1 receptor (radioligand competition). Further details: expressed in transfected cells; host or cells: CHO-K1 (membranes). The settings on record: CHO-K1 membranes; [3H]-PGE2 for Examples 1-17, 19, 33, 34, 60 and 61, 3-{2-[5-Bromo-2-(2,4-difluorobenzyloxy)-phenyl]-5-methyl-pyrrol-1-yl}-6-[3H3-methoxy]methoxy-benzoic acid for the remaining; averages of a number of experiments; read-out: pIC50 value (binding assay for the human prostanoid EP1 receptor) (converted). The procedure:
Compound potencies are determined using a radioligand binding assay. In this assay compound potencies are determined from their ability to compete with tritiated prostaglandin E2 ([^3H]-PGE2) for binding to the human EP1 receptor.
This assay utilises Chinese hamster ovary-K1 (CHO-K1) cells into which a stable vector containing the EP1 cDNA has previously been transfected. Cells are cultured in suitable flasks containing culture medium such as DMEM:F-12 supplemented with 10% v/v foetal calf serum, 2 mM L-glutamine, 0.25 mg/ml geneticin, 10 μg/ml puromycin and 10 μM indomethacin.
Cells are detached from the culture flasks by incubation in calcium and magnesium free phosphate buffered saline containing 1 mM disodium ethylenediaminetetraacetic acid (Na2EDTA) and […] indomethacin for 5 min. The cells are isolated by centrifugation at 250×g for 5mins and suspended in an ice cold buffer such as 50 mM Tris, 1 mM Na2EDTA, 140 mM NaCl, 10 μM indomethacin (pH 7.4). The cells are homogenised using a Polytron tissue disrupter (2×10 s burst at full setting), centrifuged at 48,000×g for 20mins and the pellet containing the membrane fraction is washed (optional) three times by suspension and centrifugation at 48,000×g for 20mins. The final membrane pellet is suspended in an assay buffer such as 10 mM 2-[N-morpholino]ethanesulphonic acid, 1 mM Na2EDTA, 10 mM MgCl2 (pH 6). Aliquots are frozen at −80° C. until required.
For the binding assay the cell membranes, competing compounds and [^3H]-PGE2 (3 nM final assay concentration) are incubated in a final volume of 100 μl for 30 min at 30° C. All reagents are prepared in assay buffer. Reactions are terminated by rapid vacuum filtration over GF/B filters using a Brandell cell harvester. The filters are washed with ice cold assay buffer, dried and the radioactivity retained on the filters is measured by liquid scintillation counting in Packard TopCount scintillation counter.
The data are analysed using non linear curve fitting techniques to determine the concentration of compound producing 50% inhibition of specific binding (IC50).
Alternatively a similar assay may be carried out using 3-{2-[5-Bromo-2-(2,4-difluoro-benzyloxy)-phenyl]-5-methyl-pyrrol-1-yl}-6-[^3H3-methoxy]methoxy-benzoic acid instead of [^3H]-PGE2.
For the binding assay using 3-{2-[5-Bromo-2-(2,4-difluoro-benzyloxy)-phenyl]-5-methyl-pyrrol-1-yl}-6-[^3H3-methoxy]methoxy-benzoic acid instead of [^3H]-PGE2 the assay is carried out using a similar procedure to that described above using [^3H]-PGE2 with the following changes:
The cell membranes, competing compounds and 3-{2-[5-Bromo-2-(2,4-difluoro-benzyloxy)-phenyl]-5-methyl-pyrrol-1-yl}-6-[^3H3-methoxy]methoxy-benzoic acid (0.2 nM final assay concentration) are incubated in a final volume of 400 μl for 45 min at 37° C. All reagents are prepared in assay buffer. Reactions are terminated by rapid vacuum filtration over GF/B filters using a Brandell cell harvester. The filters are washed with water at ambient temperature, dried and the radioactivity retained on the filters is measured by liquid scintillation counting in Packard TopCount scintillation counter.
The preparation of 3-{2-[5-Bromo-2-(2,4-difluoro-benzyloxy)-phenyl]-5-methyl-pyrrol-1-yl}-6-methoxy-benzoic acid is described in WO 03/101959 and in Hall et al, Biorg. Med. Chem. Lett., 2007, 17, 916-920. The tritiated version may be prepared via conventional routes, e.g. from 3-{2-[5-bromo-2-(2,4-difluoro-benzyloxy)-phenyl]-5-methyl-pyrrol-1-yl}-6-hydroxy-benzoic acid or 3-{2-[5-bromo-2-(2,4-difluoro-benzyloxy)-phenyl]-5-methyl-pyrrol-1-yl}-6-hydroxy-benzoic acid methyl ester.
(Loss of bound radioactivity is the signal in a displacement assay; it reports binding, not function.)

For experiment [2], the target named is T1, human EP1 receptor. The experiment is described as follows: human EP1 calcium mobilisation assay. The settings on record: CHO-K1 cells, antagonism of PGE2; averages of a number of experiments; read-out: functional pKi value (human EP1 calcium mobilisation assay) (converted). Further details: expressed in transfected cells. It counts as cell-based. The procedure:
Briefly, the antagonist properties of compounds are assessed by their ability to inhibit the mobilisation of intracellular calcium ([Ca^2+]i) in response to activation of EP1 or EP3 receptors by the natural agonist hormone prostaglandin E2 (PGE2). Increasing concentrations of antagonist reduce the amount of calcium that a given concentration of PGE2 can mobilise. The net effect is to displace the PGE2 concentration-effect curve to higher concentrations of PGE2. The amount of calcium produced is assessed using a calcium-sensitive fluorescent dye such as Fluo-4, AM and a suitable instrument such as a Fluorimetric Imaging Plate Reader (FLIPR). Increasing amounts of [Ca^2+]i produced by receptor activation increase the amount of fluorescence produced by the dye and give rise to an increasing signal. The signal may be detected using the FLIPR instrument and the data generated may be analysed with suitable curve-fitting software.
The human EP1 or EP3 calcium mobilisation assay (hereafter referred to as ‘the calcium assay’) utilises Chinese hamster ovary-K1 (CHO-K1) cells into which a stable (PCIN; BioTechniques 20 (1996): 102-110) vector containing either EP1 or EP3 cDNA has previously been transfected. Cells are cultured in suitable flasks containing culture medium such as DMEM:F-12 supplemented with 10% v/v foetal calf serum, 2 mM L-glutamine, 0.25 mg/ml geneticin, 100 μM flurbiprofen and 10 μg/ml puromycin.
For assay, cells are harvested using a proprietary reagent that dislodges cells such as Versene. Cells are re-suspended in a suitable quantity of fresh culture media for introduction into a 384-well plate. Following incubation for 24 hours at 37° C. the culture media is replaced with a medium containing Fluo-4 and the detergent pluronic acid, and a further incubation takes place. Concentrations of compounds are then added to the plate in order to construct concentration-effect curves. This may be performed on the FLIPR in order to assess the agonist properties of the compounds. Concentrations of PGE2 are then added to the plate in order to assess the antagonist properties of the compounds.
The data so generated may be analysed by means of a computerised curve-fitting routine. The concentration of compound that elicits a half-maximal inhibition of the calcium mobilisation induced by PGE2 (pIC50) may then be estimated.
A general note: Calcium flux is commonly read through the fluorescence of an indicator in the cells.

`Cc1cc(NC(=O)c2ccc(CN3CCCC3)cc2)nn1Cc1cc(Cl)cc2cc(C(C)C)oc12` [Example 67]: the IC50 in experiment [1] is at most 100 nM.
Regarding `Cc1cc(C(=O)NN2CCOCC2)nn1Cc1cc(Cl)cc2cc(C(C)C)oc12` [Example 7, 1-{[5-Chloro-2-(1-methylethyl)-1-benzofuran-7-yl]methyl}-5-methyl-N-4-morpholinyl-1H-pyrazole-3-carboxamide], the Ki in experiment [2] was at most 316 nM. In experiment [1], the IC50 was at most 100 nM.
In the same order, the values of `Cc1cc(C(=O)NC2CCOCC2)nn1Cc1cc(Cl)cc2cc(C3CCCCC3)oc12` [Example 29, 1-[(5-Chloro-2-cyclohexyl-1-benzofuran-7-yl)methyl]-5-methyl-N-(tetrahydro-2H-pyran-4-yl)-1H-pyrazole-3-carboxamide] are at most 316 nM and at most 100 nM.
The like results for `CC(C)c1cc2cc(Cl)cc(Cc3ccc(C(N)=O)o3)c2o1` [Example 37, 5-{[5-Chloro-2-(1-methylethyl)-1-benzofuran-7-yl]methyl}-2-furancarboxamide] were, in that order, at most 316 nM and at most 100 nM.
In the same order, the values of `Cc1cc(NC(=O)C(C)C)nn1Cc1cc(C#N)cc2cc(C(C)C)oc12` [Example 68, N-(1-{[5-Cyano-2-(1-methylethyl)-1-benzofuran-7-yl]methyl}-5-methyl-1H-pyrazol-3-yl)-2-methylpropanamide] are at most 316 nM and at most 100 nM.
In the case of `CC(C)c1cc2cc(Cl)cc(Cc3ccc(-c4nc5cc(CO)ccc5[nH]4)o3)c2o1` [Example 9, [2-(5-{[5-Chloro-2-(1-methylethyl)-1-benzofuran-7-yl]methyl}-2-furanyl)-1H-benzimidazol-5-yl]methanol Hydrochloride], the Ki in experiment [2] was at most 316 nM. The IC50 in experiment [1] was at most 100 nM.
In the same order, the values of `Cc1cc(C(=O)NC2CCOCC2)nn1Cc1cc(Cl)cc2cc(C(C)C)oc12` [Example 60, 1-{[5-chloro-2-(1-methylethyl)-1-benzofuran-7-yl]methyl}-5-methyl-N-(tetrahydro-2H-pyran-4-yl)-1H-pyrazole-3-carboxamide] are at most 316 nM and at most 100 nM.
`Cc1cc(C(=O)O)nn1Cc1cc(Br)cc2cc(C(C)C)oc12` [Example 19, 1-{[5-Bromo-2-(1-methylethyl)-1-benzofuran-7-yl]methyl}-5-methyl-1H-pyrazole-3-carboxylic Acid]: the Ki in experiment [2] is at most 316 nM. The IC50 in experiment [1] was at most 100 nM.
The like results for `Cc1cc(C(=O)O)nn1Cc1cc(C#N)cc2cc(C(C)C)oc12` [Example 25, 1-{[5-Cyano-2-(1-methylethyl)-1-benzofuran-7-yl]methyl}-5-methyl-1H-pyrazole-3-carboxylic Acid] were, in that order, at most 316 nM and at most 100 nM.
In the same order, the values of `Cc1cc(C(=O)O)nn1Cc1cc(Cl)cc2cc(C(C)(C)C)oc12` [Example 27, 1-{[5-Chloro-2-(1,1-dimethylethyl)-1-benzofuran-7-yl]methyl}-5-methyl-1H-pyrazole-3-carboxylic Acid] are at most 316 nM and at most 100 nM.
Regarding `Cc1cc(NC(=O)[C@H]2CC[C@@H](O)CC2)nn1Cc1cc(Cl)cc2cc(C(C)C)oc12` [Example 62, cis-N-(1-{[5-Chloro-2-(1-methylethyl)-1-benzofuran-7-yl]methyl}-5-methyl-1H-pyrazol-3-yl)-4-hydroxycyclohexanecarboxamide], in experiment [1], the IC50 is at most 100 nM.
Regarding `Cc1cc(-c2nc3ccccc3[nH]2)nn1Cc1cc(Cl)cc2cc(C(C)C)oc12` [Example 5, 2-(1-{[5-Chloro-2-(1-methylethyl)-1-benzofuran-7-yl]methyl}-5-methyl-1H-pyrazol-3-yl)-1H-benzimidazole Hydrochloride], the Ki in experiment [2] is at most 316 nM. Besides, in experiment [1], the IC50 is at most 100 nM.
On to `Cc1cc(C(=O)Nc2ccc(CN3CCOCC3)cc2)nn1Cc1cc(Br)cc2cc(C(C)C)oc12` [Example 52, 1-{[5-Bromo-2-(1-methylethyl)-1-benzofuran-7-yl]methyl}-5-mthyl-N-[4-(4-morpholinylmethyl)phenyl]-1H-pyrazole-3-carboxamidehydrochloride], for which the Ki in experiment [2] was at most 316 nM. Besides, in experiment [1], the IC50 was at most 100 nM.
Turning to `Cc1cc(NC(=O)[C@H]2CC[C@H](O)CC2)nn1Cc1cc(Cl)cc2cc(C(C)C)oc12` [Example 63, trans-N-(1-{[5-chloro-2-(1-methylethyl)-1-benzofuran-7-yl]methyl}-5-methyl-1H-pyrazol-3-yl)-4-hydroxycyclohexanecarboxamide], the IC50 in experiment [1] is at most 100 nM.
Same read-out and setting: then `Cc1cc(C(=O)Nc2ccc(CN3CCC(O)CC3)cc2)nn1Cc1cc(Br)cc2cc(C(C)C)oc12` [Example 49, 1-{[5-Bromo-2-(1-methylethyl)-1-benzofuran-7-yl]methyl}-N-{4-[(4-hydroxy-1-piperidinyl)methyl]phenyl}-5-methyl-1H-pyrazole-3-carboxamide Hydrochloride], with at most 100 nM.
Take `Cc1cc(C(=O)O)nn1Cc1cc(Cl)cc2cc(C3CC3)oc12` [Example 23, Sodium 1-[(5-chloro-2-cyclopropyl-1-benzofuran-7-yl)methyl]-5-methyl-1H-pyrazole-3-carboxylate]: the IC50 in experiment [1] was at most 100 nM.
